Data as given in PubChem BioAssay AID1918943 (Molecular Pharmacology Branch, DTP, NCI, 2023).

Test system: 855422-203-R-J1-PDC complex spheroid viability
Experiment: Anticancer human tumor 855422-203-R-J1-PDC patient-derived bladder carcinoma cell line growth inhibition
Conditions: for IC50: curve of first compound; for viability, T/C: stronger effect = lower value
Summary of the method: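 Complex spheroids of tumor cells with HUVEC and human MSCs, exposed to iadademstat combined with other agents. Each agent tested in half-log steps from near clinical Cmax (else 10 microM top), DMSO ≤0.25%.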

[1] = second compound 0.1 µM, first compound 0.0316 µM
[2] = second compound 0.1 µM, first compound 0.1 µM
[3] = second compound 0.1 µM, first compound 0.316 µM
[4] = second compound 0.1 µM, first compound 1 µM
[5] = second compound 0.1 µM, first compound 3.16 µM
[6] = second compound 0.1 µM, first compound 10 µM
[7] = second compound 0.316 µM, first compound 0.0316 µM
[8] = second compound 0.316 µM, first compound 0.1 µM
[9] = second compound 0.316 µM, first compound 0.316 µM
[10] = second compound 0.316 µM, first compound 1 µM
[11] = second compound 0.316 µM, first compound 3.16 µM
[12] = second compound 0.316 µM, first compound 10 µM
[13] = second compound 1 µM, first compound 0.0316 µM
[14] = second compound 1 µM, first compound 0.1 µM
[15] = second compound 1 µM, first compound 0.316 µM
[16] = second compound 1 µM, first compound 1 µM
[17] = second compound 1 µM, first compound 3.16 µM
[18] = second compound 1 µM, first compound 10 µM
[19] = second compound 3.16 µM, first compound 0.0316 µM
[20] = second compound 3.16 µM, first compound 0.1 µM
[21] = second compound 3.16 µM, first compound 0.316 µM
[22] = second compound 3.16 µM, first compound 1 µM
[23] = second compound 3.16 µM, first compound 3.16 µM
[24] = second compound 3.16 µM, first compound 10 µM
[25] = second compound 10 µM, first compound 0.0316 µM
[26] = second compound 10 µM, first compound 0.1 µM
[27] = second compound 10 µM, first compound 0.316 µM
[28] = second compound 10 µM, first compound 1 µM
[29] = second compound 10 µM, first compound 3.16 µM
[30] = second compound 10 µM, first compound 10 µM
[31] = second compound 0.1 µM, first compound 0.00316 µM
[32] = second compound 0.1 µM, first compound 0.01 µM
[33] = second compound 0.316 µM, first compound 0.00316 µM
[34] = second compound 0.316 µM, first compound 0.01 µM
[35] = second compound 1 µM, first compound 0.00316 µM
[36] = second compound 1 µM, first compound 0.01 µM
[37] = second compound 3.16 µM, first compound 0.00316 µM
[38] = second compound 3.16 µM, first compound 0.01 µM
[39] = second compound 10 µM, first compound 0.00316 µM
[40] = second compound 10 µM, first compound 0.01 µM
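Note: drug exposure lasted 7 days starting on day 3 after seeding.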
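Throughout, for viability, T/C: luminescence viability as percent of DMSO vehicle wells = 100%.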

Row | Compound | IC50 (second compound 0.1 µM) [nM] | IC50 (second compound 0.316 µM) [nM] | IC50 (second compound 1 µM) [nM] | IC50 (second compound 3.16 µM) [nM] | IC50 (second compound 10 µM) [nM] | viability, T/C [1] [%] | viability, T/C [2] [%] | viability, T/C [3] [%] | viability, T/C [4] [%] | viability, T/C [7] [%] | viability, T/C [8] [%] | viability, T/C [9] [%] | viability, T/C [10] [%] | viability, T/C [13] [%] | viability, T/C [14] [%] | viability, T/C [15] [%] | viability, T/C [16] [%] | viability, T/C [19] [%] | viability, T/C [20] [%] | viability, T/C [21] [%] | further results
1 | CC(C)c1c(-c2ccccc2)nc2c(C#N)c[nH]n2c1=O + NC1CCC(NC2CC2c2ccccc2)CC1 | > 10000 | > 10000 | > 10000 | > 10000 | > 10000 | 82.4 | 88 | 92.9 | 87.7 | 93.2 | 85.3 | 93.4 | 83.3 | 88.6 | 92.2 | 85.9 | 86.7 | 89.1 | 80.4 | 81.1 | viability, T/C [5]: 85.3%; viability, T/C [6]: 74.7%; viability, T/C [11]: 77.1%; viability, T/C [12]: 74%; viability, T/C [17]: 80.1%; viability, T/C [18]: 75.3%; viability, T/C [22]: 77.1%; viability, T/C [23]: 79.9%; viability, T/C [24]: 80.2%; viability, T/C [25]: 82.9%; viability, T/C [26]: 91.7%; viability, T/C [27]: 84.4%; viability, T/C [28]: 74.6%; viability, T/C [29]: 69.6%; viability, T/C [30]: 73.4%
2 | CC1COCCN1c1cc(-c2ccnn2C)c2ccnc(-c3ccn[nH]3)c2n1 (stereo not given) + NC1CCC(NC2CC2c2ccccc2)CC1 | 183 | 163 | 178 | 99.9 | 86.1 | 86.5 | 59.5 | 41.5 | 33 | 90.3 | 60 | 39.5 | 33 | 96.4 | 63.8 | 38.7 | 34 | 87.4 | 49.9 | 32.5 | viability, T/C [31]: 95.1%; viability, T/C [32]: 83.1%; viability, T/C [33]: 91.8%; viability, T/C [34]: 78.9%; viability, T/C [35]: 85%; viability, T/C [36]: 79.7%; viability, T/C [37]: 87.4%; viability, T/C [38]: 83.5%; viability, T/C [22]: 27.2%; viability, T/C [39]: 88%; viability, T/C [40]: 81.1%; viability, T/C [25]: 84%; viability, T/C [26]: 44.9%; viability, T/C [27]: 33.2%; viability, T/C [28]: 31.7%
3 | COc1ccc([C@@H](O)c2cc(-c3ncnc4cc(N5CCOCC5)ccc34)c(F)cc2Cl)nn1 + NC1CCC(NC2CC2c2ccccc2)CC1 | 3980 | 3750 | 3580 | 3120 | 3230 | 83.7 | 88.8 | 76.3 | 73.8 | 88.5 | 89.4 | 73.4 | 69.3 | 87.1 | 84.7 | 73.3 | 68 | 85.2 | 78.2 | 75.1 | viability, T/C [5]: 53.1%; viability, T/C [6]: 34.5%; viability, T/C [11]: 53%; viability, T/C [12]: 33.5%; viability, T/C [17]: 53%; viability, T/C [18]: 30.8%; viability, T/C [22]: 68.2%; viability, T/C [23]: 48.4%; viability, T/C [24]: 31.3%; viability, T/C [25]: 76.9%; viability, T/C [26]: 80%; viability, T/C [27]: 71.7%; viability, T/C [28]: 64.7%; viability, T/C [29]: 50.6%; viability, T/C [30]: 32.8%
4 | O=C(C=Cn1cnc(-c2cc(C(F)(F)F)cc(C(F)(F)F)c2)n1)NNc1cnccn1 + NC1CCC(NC2CC2c2ccccc2)CC1 | 34.6 | 54.3 | 45.6 | 40.4 | 45.1 | 49.8 | 44.6 | 38.1 | 28.6 | 51.2 | 49.5 | 39.5 | 28.1 | 54.3 | 46.6 | 40 | 28.4 | 52.8 | 44.3 | 40.9 | viability, T/C [31]: 126%; viability, T/C [32]: 106%; viability, T/C [33]: 142%; viability, T/C [34]: 98.2%; viability, T/C [35]: 128%; viability, T/C [36]: 116%; viability, T/C [37]: 110%; viability, T/C [38]: 106%; viability, T/C [22]: 27.9%; viability, T/C [39]: 99.1%; viability, T/C [40]: 101%; viability, T/C [25]: 55.5%; viability, T/C [26]: 43.1%; viability, T/C [27]: 37.5%; viability, T/C [28]: 31.9%
